B1: betacellulin (protein, UniProt P35070 32-111, looked up)
Betacellulin: DGNSTRSPETNGLLCGDPEENCAATTTQSKRKGHFSRCPKQYKHYCIKGRCRFVVAEQTPSCVCDEGYIGARCERVDLFY
B2: heparin binding-EGF (protein, UniProt Q99075 63-148, looked up)
Heparin-binding EGF-like …: DLQEADLDLLRVTLSSKPQALATPNKEEHGKRKKKGKGLGKKRDPCLRKYKDFCIHGECKYVKELRAPSCICHPGYHGERCHGLSL

How the values were obtained:
Type in all cases: cell-based, Mus musculus
UCP1 protein = UCP1 protein levels by western blotting in primary white and brown adipocytes; settings: NE 100 nM, PTHrP or PTH 100 ng/ml each, 24 hr
primary adipocytes = experiment: Cellular oxygen consumption rate; settings: primary white adipocytes, NE 100 nM, PTHrP or PTH 100 ng/ml, 24 hr, n = 4
primary white adipocytes = experiment: Thermogenic gene expression; settings: for Ucp1 expression: primary adipocytes treated with the indicated proteins 1 μg/ml for 24 hr, n = 3 (Fig. 2e)
primary brown adipocytes = experiment: Thermogenic gene expression; settings: peptides 100 ng/ml for 2 hr, RT-qPCR, n = 3 (Extended Data Fig. 3d)

Molecule	UCP1 protein levels (UCP1 protein)	O2 consumption, including basal, uncoupled and maximal respiration (primary adipocytes)	Ucp1 expression (primary white adipocytes; RT-qPCR)	also measured
NC[C@H](O)c1ccc(O)c(O)c1 [NE, norepinephrine]	increased UCP1 protein comparably	significantly raised O2 consumption		
C=CC(=O)Nc1ccc2ncnc(Nc3ccc(OCc4cccc(F)c4)c(Cl)c3)c2c1 [AST-1306]				browning activity present in LLC cell-conditioned medium (primary white adipocytes; AST-1306 1 μM and LLC cell-conditioned medium for 24 hr, primary adipocytes, n = 3 (Fig. 3a)): largely unaffected; Ucp1 mRNA induction by BTC, EREG or HBEGF (primary white adipocytes; AST-1306 1 μM with BTC, EREG or HBEGF 100 ng/ml for 24 hr, primary adipocytes, n = 3 (Extended Data Fig. 3c)): completely blocked Ucp1 mRNA induction
PTH: Synthetic parathyroid hormone 1-34 peptide, purchased from Bachem (SVSEIQLMHNLGKHLNSMERVEWLRKKLQDVHNF; Parathyroid hormone; UniProt P01270 32-65, looked up, fragment)	increased UCP1 protein comparably	significantly raised O2 consumption		thermogenic gene expression (primary white adipocytes; primary white adipocytes, peptides 100 ng/ml for 2 hr, RT-qPCR, n = 3 (Fig. 3b)): stimulated thermogenic gene expression; thermogenic gene expression (primary brown adipocytes): stimulated thermogenic gene expression
epiregulin [EREG]			induced Ucp1 expression	
B1			induced Ucp1 expression	
B2			induced Ucp1 expression	

From article PMC4224962 (Nature, 2014)
